The record followed here is patent publication US20230000996A1, “RAPAFUCIN DERIVATIVE COMPOUNDS AND METHODS OF USE THEREOF” (The Johns Hopkins University, priority 2019, published 2023).

One assay in a line: Nucleoside uptake, single concentration assay (Rel.Uptake); cell line indicated in each table. Particulars: 293T cells; single concentration; response relative to DMSO. Format: cell-based. How it is done: Nucleoside Uptake Assay (uptake). Nuceloside uptake assays were performed with using 3H-Thymidine as described in Guo et al. (2018) Nat. Chem. 11:254-63. Specific cell lines are indicated in each assay and cultured in complete growth media. Activity is scored according to the IC50 values relative to DMSO control. “Low” indicates an IC50 greater than 600 nM, “Medium” indicates an IC50 between 300 nM and 600 nM “High” indicates an IC50 less than 300 nM. “Rel.Uptake” refers to uptake activity characterization relative to a single concentration assay. “Low” indicates a response greater than 0.6 times the activity relative to DMSO, “Medium” indicates a response between 0.6 and 0.3 times the activity relative to DMSO, “High” indicates a response less than 0.3 times the activity relative to DMSO.
`COc1ccc(CC[C@H]2OC(=O)[C@@H]3CCCCN3C(=O)C(=O)C(C)(C)COC(=O)C=CCCN(C)C(=O)[C@H](CC(C)C)N(C)C(=O)[C@H]3CCCN3C(=O)[C@H](CC(=O)OC(C)(C)C)N(C)C(=O)C(c3ccccc3)NC(=O)CCC(=O)Nc3cccc2c3)cc1OC` (stereo partly drawn) [Compound 1066]: the “Rel. Uptake, 293T” value was “high”.
Same read-out and setting: the result for `COc1ccc(CC[C@H]2OC(=O)[C@@H]3CCCCN3C(=O)C(=O)C(C)(C)COC(=O)C=CCCN(C)C(=O)[C@H](CC(C)C)N(C)C(=O)[C@H]3CCCN3C(=O)[C@H](Cc3ccc(CC(=O)OC(C)(C)C)cc3)NC(=O)C(c3ccccc3)NC(=O)CCC(=O)Nc3cccc2c3)cc1OC` (stereo partly drawn) [Compound 1081] reads “medium”; that for `COc1ccc(CC[C@H]2OC(=O)[C@@H]3CCCCN3C(=O)C(=O)C(C)(C)COC(=O)C=CCCN(C)C(=O)[C@H](CC(C)C)N(C)C(=O)[C@H]3CCCN3C(=O)[C@H](Cc3ccc(OCc4ccccc4)cc3)NC(=O)C(c3ccccc3)NC(=O)CCC(=O)Nc3cccc2c3)cc1OC` (stereo partly drawn) [Compound 1082], “low”.

The same assay, now with this note: nucleoside uptake, single concentration assay, 293T cells, response relative to DMSO.
Turning to `COc1ccc(CC[C@H]2OC(=O)[C@@H]3CCCCN3C(=O)C(=O)C(C)(C)COC(=O)C=CCCN(C)C(=O)[C@@H](c3ccccc3)NC(=O)[C@H](Cc3ccc(OP(C)(C)=O)cc3)NC(=O)[C@H]3CCCN3C(=O)[C@H](CC(C)C)N(C)C(=O)COc3cccc2c3)cc1OC` [Compound 1520], the “Rel. Uptake, 293T” value was “low”.
With `COc1ccc(CC[C@H]2OC(=O)[C@@H]3CCCCN3C(=O)C(=O)C(C)(C)COC(=O)C=CCCN(C)C(=O)[C@H](CC(C)C)N(C)C(=O)[C@H]3CCCN3C(=O)[C@H](Cc3ccc(O)cc3)NC(=O)C(c3ccccc3)NC(=O)CCC(=O)Nc3cccc2c3)cc1OC` (stereo partly drawn) [Compound 1522], the “Rel. Uptake, 293T” value is on record as “high”.
Still for that read-out and setting: to `COc1ccc(CC[C@H]2OC(=O)[C@@H]3CCCCN3C(=O)C(=O)C(C)(C)CNC(=O)C=CCCN(C)C(=O)[C@H](CC(C)C)N(C)C(=O)[C@H]3CCCN3C(=O)[C@H](Cc3ccccc3)N(C)C(=O)C(c3ccccc3)NC(=O)CCC(=O)Nc3cccc2c3)cc1OC` (stereo partly drawn) [Compound 1555] belongs “high”; to `COc1ccc(CC[C@H]2OC(=O)[C@@H]3CCCCN3C(=O)C(=O)C(C)(C)COC(=O)C=CCCN(C)NC(c3ccccc3)C(=O)N(C)[C@@H](Cc3ccccc3)C(=O)N3CCC[C@@H]3C(=O)N(C)[C@@H](CC(C)C)C(=O)C(=O)CCOc3cccc2c3)cc1OC` (stereo partly drawn) [Compound 1556], “low”.
As for `COc1ccc(CC[C@H]2OC(=O)[C@@H]3CCCCN3C(=O)C(=O)C(C)(C)COC(=O)C=CCCN(C)C(=O)[C@H](CC(C)C)N(C)C(=O)[C@H]3CCCN3C(=O)[C@H](Cc3ccc(C(=O)NCCO)cc3)NC(=O)[C@H](c3ccccc3)NC(=O)CCC(=O)Nc3cccc2c3)cc1OC` [Compound 1558], the “Rel. Uptake, 293T” value is “high”.
Turning to `COc1ccc(CC[C@H]2OC(=O)[C@@H]3CCCCN3C(=O)C(=O)C(C)(C)COC(=O)C=CCCN(C)C(=O)[C@H](CC(C)C)N(C)C(=O)[C@H]3CCCN3C(=O)[C@H](Cc3ccc(C(=O)Nc4cccnc4)cc3)NC(=O)[C@H](c3ccccc3)NC(=O)CCC(=O)Nc3cccc2c3)cc1OC` [Compound 1562], the “Rel. Uptake, 293T” value is “low”.
Still for that read-out and setting: to `CCCC[C@H]1C(=O)N[C@@H](Cc2ccc3ccccc3c2)C(=O)N(C)[C@@H](COC(C)(C)C)C(=O)NCC(=O)N(C)CCC=CC(=O)OCC(C)(C)C(=O)C(=O)N2CCCC[C@H]2C(=O)O[C@H](CCc2ccc(OC)c(OC)c2)c2cccc(c2F)OCC(=O)N1C` [Compound 1563] belongs “high”; to `CCCC[C@H]1C(=O)N[C@@H](Cc2ccc3ccccc3c2)C(=O)N(C)[C@@H](COC(C)(C)C)C(=O)NCC(=O)N(C)CCC=CC(=O)OCC(C)(C)C(=O)C(=O)N2CCCC[C@H]2C(=O)O[C@H](CCc2ccc(OC)c(O)c2)c2cccc(c2)OCC(=O)N1C` [Compound 1564], “high”.
In the case of `CCCC[C@H]1C(=O)N[C@@H](Cc2ccc3ccccc3c2)C(=O)N(C)[C@@H](COC(C)(C)C)C(=O)NCC(=O)N(C)CCC=CC(=O)OCC(C)(C)C(=O)C(=O)N2CCCC[C@H]2C(=O)O[C@H](CCc2ccc(OC)c(OC)c2)c2cncc(c2)OCC(=O)N1C` [Compound 1565], the “Rel. Uptake, 293T” value is listed as “low”.
The same measure, in the same setting: the result for `COc1cc(CC[C@H]2OC(=O)[C@@H]3CCCCN3C(=O)C(=O)C(C)(C)COC(=O)C=CCCN(C)C(=O)[C@@H](Cc3ccccc3)NC(=O)CN(C)C(=O)[C@@H](Cc3ccccc3)NC(=O)[C@H](Cc3ccc(O)cc3)N(C)C(=O)COc3cccc2c3)cc(OC)c1OC` [Compound 1566] reads “medium”; that for `COc1cc(CC[C@H]2OC(=O)[C@@H]3CCCCN3C(=O)C(=O)C(C)(C)COC(=O)C=CCCN(C)C(=O)[C@@H](Cc3ccccc3)NC(=O)CN(C)C(=O)[C@@H](Cc3ccccc3)NC(=O)[C@H](Cc3ccc(O)cc3)N(C)C(=O)COc3cccc2c3)cc(O)c1OC` [Compound 1567], “medium”; that for `COc1cc(O)c(CC[C@H]2OC(=O)[C@@H]3CCCCN3C(=O)C(=O)C(C)(C)COC(=O)C=CCCN(C)C(=O)[C@@H](Cc3ccccc3)NC(=O)CN(C)C(=O)[C@@H](Cc3ccccc3)NC(=O)[C@H](Cc3ccc(O)cc3)N(C)C(=O)COc3cccc2c3)cc1OC` [Compound 1568], “low”.
Consider `COc1cc(CC[C@H]2OC(=O)[C@@H]3CCCCN3C(=O)C(=O)C(C)(C)COC(=O)C=CCCN(C)C(=O)[C@@H](Cc3ccccc3)NC(=O)CN(C)C(=O)[C@@H](Cc3ccccc3)NC(=O)[C@H](Cc3ccc(O)cc3)N(C)C(=O)COc3cccc2c3)cc(F)c1OC` [Compound 1569], for which the “Rel. Uptake, 293T” value was “low”.
The same measure, in the same setting: to `COc1cc(F)c(CC[C@H]2OC(=O)[C@@H]3CCCCN3C(=O)C(=O)C(C)(C)COC(=O)C=CCCN(C)C(=O)[C@@H](Cc3ccccc3)NC(=O)CN(C)C(=O)[C@@H](Cc3ccccc3)NC(=O)[C@H](Cc3ccc(O)cc3)N(C)C(=O)COc3cccc2c3)cc1OC` [Compound 1570] belongs “medium”; to `COc1ccc(CC[C@H]2OC(=O)[C@@H]3CCCCN3C(=O)C(=O)C(C)(C)COC(=O)C=CCCN(C)C(=O)[C@@H](Cc3ccccc3)NC(=O)CN(C)C(=O)[C@@H](Cc3ccccc3)NC(=O)[C@H](Cc3ccc(O)cc3)N(C)C(=O)COc3cccc2c3)c(F)c1OC` [Compound 1571], “low”.
On the same count and under the same terms, to `COc1ccc(CC[C@H]2OC(=O)[C@@H]3CN(C(=O)OCC4c5ccccc5-c5ccccc54)CCN3C(=O)C(=O)C(C)(C)COC(=O)C=CCCN(C)C(=O)[C@@H](Cc3ccccc3)NC(=O)CN(C)C(=O)[C@@H](Cc3ccccc3)NC(=O)[C@H](Cc3ccc(O)cc3)N(C)C(=O)COc3cccc2c3)cc1OC` [Compound 1572] belongs “low”; to `COc1ccc(CC[C@H]2OC(=O)[C@@H]3CNCCN3C(=O)C(=O)C(C)(C)COC(=O)C=CCCN(C)C(=O)[C@@H](Cc3ccccc3)NC(=O)CN(C)C(=O)[C@@H](Cc3ccccc3)NC(=O)[C@H](Cc3ccc(O)cc3)N(C)C(=O)COc3cccc2c3)cc1OC` [Compound 1573], “low”.
On to `COc1ccc(CC[C@H]2OC(=O)[C@@H]3CN(C)CCN3C(=O)C(=O)C(C)(C)COC(=O)C=CCCN(C)C(=O)[C@@H](Cc3ccccc3)NC(=O)CN(C)C(=O)[C@@H](Cc3ccccc3)NC(=O)[C@H](Cc3ccc(O)cc3)N(C)C(=O)COc3cccc2c3)cc1OC` [Compound 1574], for which the “Rel. Uptake, 293T” value is on record as “low”.
